BindingDB's records for doi:10.1016/j.bmcl.2007.11.067 (Bristol-Myers Squibb, 2008)

How the values were obtained:
[1] = Antagonist activity at human CCR3 receptor in human eosinophil assessed as inhibition of eotaxin-induced chemotaxis
[2] = Antagonist activity at CCR3 receptor in cynomolgus monkey eosinophil assessed as as inhibition of chemotaxis
[3] = Antagonist activity at CCR3 receptor in mouse eosinophil assessed as as inhibition of chemotaxis

Row | IC50 [1] [nM] | IC50 [2] [nM] | IC50 [3] [nM] | SMILES
1 | 0.02 |  |  | CCc1cc(NC(=O)N[C@H](C)CCN2CCC[C@@H](Cc3ccc(F)cc3)C2)cc(-c2nnnn2C)c1
2 | 1.1 |  |  | C[C@H](CCN1CCC[C@@H](Cc2ccc(F)cc2)C1)NC(=O)Nc1cccc(-c2nnnn2C)c1
3 | 0.3 |  |  | CC(C)c1cc(NC(=O)NCCCN2CCC[C@@H](Cc3ccc(F)cc3)C2)cc(-c2nnnn2C)c1
4 | 0.021 |  |  | CC(C)c1cc(NC(=O)N[C@H](C)CCN2CCC[C@@H](Cc3ccc(F)cc3)C2)cc(-c2nnnn2C)c1
5 | > 1 |  |  | C[C@@H](CCN1CCC[C@@H](Cc2ccc(F)cc2)C1)NC(=O)Nc1cccc(-c2nnnn2C)c1
6 | 0.011 |  |  | CCC[C@H](CCN1CCC[C@@H](Cc2ccc(F)cc2)C1)NC(=O)Nc1cc(-c2nnnn2C)cc(C(C)(C)O)c1
7 | 0.1 |  |  | CC[C@H](CCN1CCC[C@@H](Cc2ccc(F)cc2)C1)NC(=O)Nc1cc(-c2nnnn2C)cc(C(C)(C)O)c1
8 | 0.02 |  |  | CC(=O)c1cc(NC(=O)N[C@H](C)CCN2CCC[C@@H](Cc3ccc(F)cc3)C2)cc(-c2nnnn2C)c1
9 | 3.2 |  |  | Cn1nnnc1-c1cccc(NC(=O)NCCCN2CCC[C@@H](Cc3ccc(F)cc3)C2)c1 [1-{3-[(S)-3-(4-Fluoro-benzyl)-piperidin-1-yl]-propyl}-3-[3-(1-methyl-1H-tetrazol-5-yl)-phenyl]-urea]
10 | 1 |  |  | Cc1cc(NC(=O)NCCCN2CCC[C@@H](Cc3ccc(F)cc3)C2)cc(-c2nnnn2C)c1 [1-{3-[(S)-3-(4-Fluoro-benzyl)-piperidin-1-yl]-propyl}-3-[3-methyl-5-(1-methyl-1H-tetrazol-5-yl)-phenyl]-urea]

Second part, the compound before the results:

Row | SMILES | IC50 [1] [nM] | IC50 [2] [nM] | IC50 [3] [nM]
11 | C[C@H](CC(=O)N1CCC[C@@H](Cc2ccc(F)cc2)C1)NC(=O)Nc1cccc(-c2nnnn2C)c1 | 0.2 |  | 
12 | C[C@H](CCN1CCC[C@@H](Cc2ccc(F)cc2)C1)NC(=O)Nc1cc(-n2cccn2)cc(-n2cccn2)c1 | 0.1 |  | 
13 | CC(=O)c1cc(NC(=O)N[C@@H](C)CCN2CCC[C@@H](Cc3ccc(F)cc3)C2)cc(C(C)=O)c1 | 60 |  | 
14 | O=C(NCCCN1CCC[C@@H](Cc2ccc(F)cc2)C1)Nc1cc(-n2cccn2)cc(-n2cccn2)c1 | 5 |  | 
15 | CC(=O)c1cc(NC(=O)N[C@H](C)CCN2CCC[C@@H](Cc3ccc(F)cc3)C2)cc(C(C)=O)c1 | 0.2 |  | 
16 | CC(=O)c1cccc(NC(=O)NCCCN2CCC[C@@H](Cc3ccc(F)cc3)C2)c1 [1-(3-Acetyl-phenyl)-3-{3-[(S)-3-(4-fluoro-benzyl)-piperidin-1-yl]-propyl}-urea] | 25 |  | 
17 | C[C@@H](NC(=O)Nc1cccc(-c2nnnn2C)c1)[C@@H](O)CN1CCC[C@@H](Cc2ccc(F)cc2)C1 [1-{(1R,2S)-3-[(S)-3-(4-Fluoro-benzyl)-piperidin-1-yl]-2-hydroxy-1-methyl-propyl}-3-[3-(1-methyl-1H-tetrazol-5-yl)-phenyl]-urea] | 0.04 | 0.15 | 870
18 | CC(=O)c1cc(NC(=O)NCCCN2CCC[C@@H](Cc3ccc(F)cc3)C2)cc(C(C)=O)c1 [(S)-1-(3-(3-(4-fluorobenzyl)piperidin-1-yl)propyl)-3-(3,5-diacetylphenyl)urea] | 3 |  | 
